Reference: patent US5696096A, “Pradimicin derivatives” (Bristol-Myers Squibb Company, priority 1990, dated 1997)
Converted amounts (≈) assume the structure as drawn.

Key:
Assay in all cases: In vitro antifungal activity (MIC), serial agar dilution method
Assay type in all cases: cell-based
Settings in all cases: Sabouraud dextrose agar, 40 hours at 28° C.
[1] = test system: Aspergillus fumigatus
Procedure: (§1) Antifungal activities of representative compounds of the present invention were evaluated in vitro. The minimum inhibitory concentrations (MICs) against various fungi were determined by serial agar dilution method using Sabouraud dextrose agar. Thus, approximately 0.003 ml of fungal suspension containing 10^6 cells/ml was applied to the surface of agar plates containing the test antibiotics. The MIC values recorded after the cultures had been incubated for 40 hours at 28° C. are set forth below in Table 1.

[2] = test system: Candida albicans
Procedure: as §1

[3] = test system: Cryptococcus neoformans
Procedure: as §1

[4] = test system: Trichophyton mentagrophytes
Procedure: as §1

CN[C@@H]1[C@H](O[C@@H]2OC[C@@H](O)[C@@H](O)[C@H]2O)[C@@H](O)[C@H](O[C@H]2c3cc(C)c(C(=O)N[C@H](C)C(=O)O)c(O)c3-c3c(cc4c(c3O)C(=O)c3cc(OC)cc(O)c3C4=O)[C@@H]2O)O[C@@H]1C [Example 2, 3'-O-(β-D-Ribopyranosyl)-pradimicin B]
MIC [1]: 12.5 µg/mL (≈ 14.9 µM)
MIC [2]: > 25 µg/mL
MIC [3]: 1.6 µg/mL (≈ 1.9 µM)
MIC [4]: 25 µg/mL (≈ 29.7 µM)

CN[C@@H]1[C@H](O[C@@H]2O[C@H](CO)[C@@H](O)[C@H](O)[C@H]2O)[C@@H](O)[C@H](O[C@H]2c3cc(C)c(C(=O)N[C@H](C)C(=O)O)c(O)c3-c3c(cc4c(c3O)C(=O)c3cc(OC)cc(O)c3C4=O)[C@@H]2O)O[C@@H]1C [Example 6, 3'-O-β-D-glucopyranosylpradimicin B]
MIC [1]: 3.1 µg/mL (≈ 3.56 µM)
MIC [2]: 12.5 µg/mL (≈ 14.4 µM)
MIC [3]: 1.6 µg/mL (≈ 1.84 µM)
MIC [4]: 3.1 µg/mL (≈ 3.56 µM)

CN[C@@H]1[C@H](O[C@@H]2OC[C@H](O)[C@H](O)[C@H]2O)[C@@H](O)[C@H](O[C@H]2c3cc(C)c(C(=O)N[C@H](C)C(=O)O)c(O)c3-c3c(cc4c(c3O)C(=O)c3cc(OC)cc(O)c3C4=O)[C@@H]2O)O[C@@H]1C [Example 3, 3'-O-(α-L-Arabinopyranosyl)pradimicin B]
MIC [1]: 6.3 µg/mL (≈ 7.49 µM)
MIC [2]: 6.3 µg/mL (≈ 7.49 µM)
MIC [3]: 1.6 µg/mL (≈ 1.9 µM)
MIC [4]: 6.3 µg/mL (≈ 7.49 µM)

CN[C@@H]1[C@H](O[C@@H]2OC[C@@H](O)[C@H](O)[C@H]2O)[C@@H](O)[C@H](O[C@H]2c3cc(C)c(C(=O)N[C@H](C)C(=O)O)c(O)c3-c3c(cc4c(c3O)C(=O)c3cc(OC)cc(O)c3C4=O)[C@@H]2O)O[C@@H]1C [Pradimicin A, reference compound]
MIC [1]: 1.6 µg/mL (≈ 1.9 µM)
MIC [2]: 50 µg/mL (≈ 59.5 µM)
MIC [3]: 0.8 µg/mL (≈ 0.951 µM)
MIC [4]: 1.6 µg/mL (≈ 1.9 µM)

CN[C@@H]1[C@H](O)[C@@H](O)[C@H](O[C@H]2c3cc(C)c(C(=O)N[C@H](C)C(=O)O)c(O)c3-c3c(cc4c(c3O)C(=O)c3cc(OC)cc(O)c3C4=O)[C@@H]2O)O[C@@H]1C [Pradimicin B, reference compound]
MIC [1]: 6.3 µg/mL (≈ 8.89 µM)
MIC [2]: 3.1 µg/mL (≈ 4.37 µM)
MIC [3]: 0.8 µg/mL (≈ 1.13 µM)
MIC [4]: 6.3 µg/mL (≈ 8.89 µM)

CN[C@@H]1[C@H](O[C@@H]2O[C@H](C)[C@H](O)[C@H](O)[C@H]2O)[C@@H](O)[C@H](O[C@H]2c3cc(C)c(C(=O)N[C@H](C)C(=O)O)c(O)c3-c3c(cc4c(c3O)C(=O)c3cc(OC)cc(O)c3C4=O)[C@@H]2O)O[C@@H]1C [Example 5, 3'-O-(β-D-Fucopyranosyl)pradimicin B]
MIC [1]: 3.1 µg/mL (≈ 3.63 µM)
MIC [2]: 6.3 µg/mL (≈ 7.37 µM)
MIC [3]: 1.6 µg/mL (≈ 1.87 µM)
MIC [4]: 1.6 µg/mL (≈ 1.87 µM)

CN[C@@H]1[C@H](O[C@H]2OC[C@H](O)[C@@H](O)[C@@H]2O)[C@@H](O)[C@H](O[C@H]2c3cc(C)c(C(=O)N[C@H](C)C(=O)O)c(O)c3-c3c(cc4c(c3O)C(=O)c3cc(OC)cc(O)c3C4=O)[C@@H]2O)O[C@@H]1C [Example 1, 3'-O-(β-L-xylopyranosyl)pradimicin B]
MIC [1]: > 100 µg/mL
MIC [2]: 50 µg/mL (≈ 59.5 µM)
MIC [3]: 1.6 µg/mL (≈ 1.9 µM)
MIC [4]: > 100 µg/mL

CN[C@@H]1[C@H](O[C@@H]2O[C@H](C)[C@@H](O)[C@H](O)[C@H]2O)[C@@H](O)[C@H](O[C@H]2c3cc(C)c(C(=O)N[C@H](C)C(=O)O)c(O)c3-c3c(cc4c(c3O)C(=O)c3cc(OC)cc(O)c3C4=O)[C@@H]2O)O[C@@H]1C [Example 4, 3'-O-(6-Deoxy-β-D-glucopyranosyl)pradimicin B]
MIC [1]: 3.1 µg/mL (≈ 3.63 µM)
MIC [2]: 25 µg/mL (≈ 29.2 µM)
MIC [3]: 1.6 µg/mL (≈ 1.87 µM)
MIC [4]: 1.6 µg/mL (≈ 1.87 µM)
